{
  "source": "patent US6339102B1",
  "about": "“Method and composition for treating and preventing retinal damage” (The United States of America as represented by the …, priority 1999, dated 2002)",
  "key": {"[1]": {"system": "dissociated retinal cells", "test": "MTT viability of dissociated retinal cells exposed to NaCN and 2-deoxyglucose (simulated ischemia)", "format": "cell-based, rabbit", "details": "NaCN and 2-DG giving approximately 60% toxicity, p<0.004"}, "cultured neurons": {"system": "cultured neurons", "test": "MTT neuroprotection assay in cultured neurons after H2O2 oxidative insult", "format": "cell-based", "details": "for % Neuroprotection: 4 h pre-treatment, 50 μM H2O2 30 min, MTT after 24 h, mean±SEM", "protocol": "In a separate series of experiments, cultured neurons were pre-treated with four different concentrations of DHL with or without 10 mM SPBN for four hours. At the conclusion of the preincubation period, an oxidative insult was applied by adding 50 μM of hydrogen peroxide (H2O2) for an additional 30 min. Medium containing the H2O2 and antioxidants was then removed and Minimum Essential Medium (MEM) was added to the wells for 24 hours. Neuroprotection was then assessed by conducting the calorimetric MTT assay. One way ANOVA with significance of differences between means assessed by Tukey-Kramer Multiple Comparisons test.\nData are depicted as means±SEM (n=8). Significance was determined by one way ANOVA, and differences between the means was assessed by the Tukey-Kramer test. (See table 1)."}, "focal ischemia [2]": {"system": "focal ischemia", "details": "rat; temporary model: given 3 hours or even 5 hours after start of recirculation; cited from earlier work"}, "traumatic brain injury": {"system": "traumatic brain injury", "details": "administered either 15 minutes prior or 30 minutes post injury; preliminary studies; cited from earlier work"}, "[3]": {"details": "in vivo; cited from earlier work"}, "[4]": {"details": "cited from earlier work"}, "cortical contusion": {"system": "cortical contusion", "details": "rat; cited from earlier work"}, "ferrous chloride": {"system": "ferrous chloride", "details": "mice, intracerebral lethal injection of ferrous chloride; cited from earlier work"}, "focal ischemia [5]": {"system": "focal ischemia", "details": "initiation of treatment delayed as long as 12 hours; cited from earlier work"}, "[6]": {"details": "Aldrich catalog description; cited from earlier work"}, "striatal lesions": {"system": "striatal lesions", "details": "100 mg/kg i.p. 30 min prior and q 8 hours for 48 hours after insult; or 300 mg/kg ip repeated; cited from earlier work"}, "retinal ganglion cells": {"system": "retinal ganglion cells", "details": "500 ng by intraocular injection; Klocker et al.; cited from earlier work"}, "[7]": {"details": "in vivo; cited from earlier work", "remark": "listed apart in the source"}, "lesions of striatum": {"system": "lesions of striatum", "details": "rats; cited from earlier work"}, "[8]": {"system": "ischemia-perfusion injury", "details": "gerbil; cited from earlier work"}, "[9]": {"system": "ischemia-perfusion injury", "details": "rat; cited from earlier work"}},
  "note": "Read-outs that look alike come from different tables or passages of the source.",
  "data": [
    {"smiles": "O=C(O)CCCC[C@@H](S)CCS", "note": "(racemic) [DHL, dihydrolipoic acid]", "values": [
      {"measurement": "protection against damage from NaCN and 2-DG (maximum effect)", "setting": "[1]; DHL 0.3 millimolar co-administered", "value": "approximately 60%"},
      {"measurement": "Emax", "setting": "[1]; Oryctolagus cuniculus, DHL 0.1 millimolar co-administered, read-out: protection against damage from NaCN and 2-DG (maximum effect)", "value": "~60", "unit": "%"},
      {"measurement": "% Neuroprotection", "setting": "cultured neurons; DHL 3 μM", "value": "1.31 ± 5.23", "unit": "%"},
      {"measurement": "% Neuroprotection", "setting": "cultured neurons; DHL 10 μM", "value": "−3.68 ± 5.14", "unit": "%"},
      {"measurement": "% Neuroprotection", "setting": "cultured neurons; DHL 30 μM", "value": "7.04 ± 7.38", "unit": "%"},
      {"measurement": "% Neuroprotection", "setting": "cultured neurons; DHL 100 μM", "value": "28.48 ± 5.83", "unit": "%"}
    ]},
    {"smiles": "CC(C)(C)[N+]([O-])=Cc1ccc(S(=O)(=O)[O-])cc1S(=O)(=O)[O-].[Na+].[Na+]", "note": "[NXY-059]", "values": [
      {"measurement": "efficacy in temporary and permanent focal ischemia", "setting": "focal ischemia [2]", "value": "effective"},
      {"measurement": "volume of necrosis after traumatic brain injury", "setting": "traumatic brain injury", "value": "effective in decreasing volume of necrosis"}
    ]},
    {"smiles": "CC(C)(C)[N+]([O-])=Cc1ccccc1", "note": "[PBN, α-Phenyl-N-tert-butylnitrone]", "values": [
      {"measurement": "blood brain barrier crossing", "setting": "[3]", "value": "crosses the blood brain barrier"},
      {"measurement": "toxicity", "setting": "[4]; in high concentrations", "value": "somewhat toxic"},
      {"measurement": "toxicity", "setting": "[4]; very high doses", "value": "toxicity is a problem"},
      {"measurement": "accumulation of lactate following cortical contusion", "setting": "cortical contusion", "value": "attenuate"},
      {"measurement": "seizures and time to death after ferrous chloride", "setting": "ferrous chloride", "value": "minimized seizures and delayed time to death"},
      {"measurement": "neuroprotection in rat focal ischemia model", "setting": "focal ischemia [5]", "value": "neuroprotective"}
    ]},
    {"smiles": "CC(C)(C)[N+]([O-])=Cc1ccccc1S(=O)(=O)O", "note": "[SPBN, N-tert-Butyl-α-[2-sulfophenyl]-nitrone]", "values": [
      {"measurement": "water solubility", "setting": "[6]", "value": "water-soluble"},
      {"measurement": "protection against striatal toxin lesions (lesion volume)", "setting": "striatal lesions", "value": "protective"},
      {"measurement": "retinal ganglion cells rescued after axotomy", "setting": "retinal ganglion cells", "value": 27, "unit": "%"},
      {"measurement": "effect of SPBN on the neuroprotective efficacy of DHL", "setting": "cultured neurons; 10 mM SPBN, at three of the four DHL concentrations tested", "value": "significantly increased"}
    ]},
    {"smiles": "O=C(O)CCCCC1CCSS1", "note": "(stereo not drawn) [αLA, Alpha-lipoic acid]", "values": [
      {"measurement": "clinical safety", "setting": "[7]", "value": "clinically safe"},
      {"measurement": "efficacy against NMDA and malonic acid lesions of striatum", "setting": "lesions of striatum", "value": "effective"},
      {"measurement": "neuroprotection against ischemia-perfusion injury", "setting": "[8]", "value": "neuro-protective"},
      {"measurement": "neuroprotection against ischemia-perfusion injury", "setting": "[9]", "value": "neuro-protective"}
    ]}
  ]
}
